Laboratory results taken from ChEMBL document CHEMBL1201862, “PubChem BioAssay data set” (2004).
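Compound exposure: 48 hours, 5 concentrations, 96-well plates. At the GI50, growth is halved.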 Active and inactive are the calls of the source. Rule as the data show it: active = GI50 up to about 1.1 µM and inactive = higher.

Key:
Experiment in all cases: growth of human tumour cells (NCI), 48 h
NCI/ADR-RES = system: NCI/ADR-RES
UACC-257 = system: UACC-257
UACC-62 = system: UACC-62
MOLT-4 = system: MOLT-4
HCT-116 = system: HCT-116
KM12 = system: KM12
NCI-H460 = system: NCI-H460
SK-MEL-2 = system: SK-MEL-2
HOP-92 = system: HOP-92
MCF7 = system: MCF7
OVCAR-4 = system: OVCAR-4
OVCAR-8 = system: OVCAR-8
SNB-75 = system: SNB-75
IGROV-1 = system: IGROV-1
SNB-19 = system: SNB-19
SK-OV-3 = system: SK-OV-3
A549 = system: A549
COLO 205 = system: COLO 205

Row | SMILES | GI50 (NCI/ADR-RES) | GI50 (UACC-257) | GI50 (UACC-62) | GI50 (MOLT-4) | GI50 (HCT-116) | GI50 (KM12) | GI50 (NCI-H460) | GI50 (SK-MEL-2) | GI50 (HOP-92) | GI50 (MCF7) | GI50 (OVCAR-4) | GI50 (OVCAR-8) | GI50 (SNB-75) | GI50 (IGROV-1) | GI50 (SNB-19) | GI50 (SK-OV-3) | GI50 (A549) | GI50 (COLO 205)
1 | C=C1CC(OC)(C(O)C(=O)N[C@H]2OCO[C@H]3C2O[C@H](C[C@@H](CO)OC)C(C)(C)C3OC)O[C@H](C)[C@@H]1C (stereo partly drawn) | < 0.00931 µM (active) | < 0.00931 µM (active) | < 0.00931 µM (active) | 0.931 µM (active) | < 0.00931 µM (active) | < 0.00931 µM (active) | < 0.00931 µM (active) | 0.0931 µM (active) | < 0.00931 µM (active) | < 0.00931 µM (active) | < 0.00931 µM (active) | < 0.00931 µM (active) | < 0.00931 µM (active) | < 0.00931 µM (active) | < 0.00931 µM (active) | < 0.00931 µM (active) | < 0.00931 µM (active) | < 0.00931 µM (active)
2 | O=C(Nc1ccc([N+](=O)[O-])cc1[N+](=O)[O-])C(=O)C(C(=O)c1ccc2ccccc2c1)C1OC(=O)c2ccccc21 (stereo not drawn) | – | 24.4 µM (inactive) | 16.6 µM (inactive) | 2.95 µM (inactive) | 17.6 µM (inactive) | 22.4 µM (inactive) | 13.2 µM (inactive) | 22.3 µM (inactive) | 17.8 µM (inactive) | – | 12.8 µM (inactive) | 10 µM (inactive) | 14 µM (inactive) | 19.8 µM (inactive) | 11.5 µM (inactive) | 13.5 µM (inactive) | 25.5 µM (inactive) | 15.8 µM (inactive)
3 | O=C(/C=C/CC(O)(c1ccccc1)c1ccccc1)Nc1ccccc1Cl | – | > 100 µM (inactive) | > 100 µM (inactive) | > 100 µM (inactive) | > 100 µM (inactive) | > 100 µM (inactive) | > 100 µM (inactive) | > 100 µM (inactive) | > 100 µM (inactive) | – | > 100 µM (inactive) | > 100 µM (inactive) | 28.1 µM (inactive) | – | > 100 µM (inactive) | > 100 µM (inactive) | – | > 100 µM (inactive)
4 | O=C1C(=O)c2cc([N+](=O)[O-])ccc2-c2ccc([N+](=O)[O-])cc21 | 0.344 µM (active) | 1.2 µM (inactive) | 0.466 µM (active) | 0.288 µM (active) | 0.177 µM (active) | 0.935 µM (active) | 1 µM (active) | 2.02 µM (inactive) | 0.21 µM (active) | 0.933 µM (active) | 0.322 µM (active) | 0.351 µM (active) | 2.14 µM (inactive) | 0.748 µM (active) | 1.74 µM (inactive) | 2.51 µM (inactive) | 2.52 µM (inactive) | 3.01 µM (inactive)
5 | Cc1c2[nH]c3ccc(Br)cc3c2c(C)c2nccc(O)c12 | – | 16.4 µM (inactive) | – | 5.57 µM (inactive) | 13.8 µM (inactive) | 12.4 µM (inactive) | 6.9 µM (inactive) | 17.5 µM (inactive) | – | – | 16.3 µM (inactive) | 20.7 µM (inactive) | 25.8 µM (inactive) | – | 14.5 µM (inactive) | – | 10.2 µM (inactive) | 12.5 µM (inactive)
6 | O=C(CCC(=O)Nc1ccc(Cl)c(Cl)c1)CC(=O)c1ccc(Br)cc1 | – | 49.4 µM (inactive) | 36.2 µM (inactive) | > 100 µM (inactive) | > 100 µM (inactive) | > 100 µM (inactive) | – | > 100 µM (inactive) | > 100 µM (inactive) | – | > 100 µM (inactive) | > 100 µM (inactive) | 61.7 µM (inactive) | > 100 µM (inactive) | > 100 µM (inactive) | > 100 µM (inactive) | > 100 µM (inactive) | > 100 µM (inactive)
7 | CC(=O)Nc1ccc(C2=N/C(=C\c3ccc(Cl)c(Cl)c3)C(=O)O2)cc1 | – | > 100 µM (inactive) | > 100 µM (inactive) | > 100 µM (inactive) | > 100 µM (inactive) | > 100 µM (inactive) | > 100 µM (inactive) | > 100 µM (inactive) | 68.9 µM (inactive) | – | > 100 µM (inactive) | > 100 µM (inactive) | 64.6 µM (inactive) | > 100 µM (inactive) | > 100 µM (inactive) | > 100 µM (inactive) | > 100 µM (inactive) | > 100 µM (inactive)
8 | Nc1c(C(=O)Nc2ccc(C3=NCCN3)cc2)cccc1C(=O)Nc1ccc(C2=NCCN2)cc1 | > 100 µM (inactive) | > 100 µM (inactive) | > 100 µM (inactive) | > 100 µM (inactive) | > 100 µM (inactive) | > 100 µM (inactive) | > 100 µM (inactive) | > 100 µM (inactive) | > 100 µM (inactive) | > 100 µM (inactive) | > 100 µM (inactive) | 65.3 µM (inactive) | > 64.9 µM (inactive) | > 100 µM (inactive) | > 100 µM (inactive) | > 100 µM (inactive) | > 100 µM (inactive) | > 100 µM (inactive)
9 | COc1cc2c(c(OC)c1OC)-c1[nH]ncc1CC2 | – | > 100 µM (inactive) | > 100 µM (inactive) | > 100 µM (inactive) | > 100 µM (inactive) | > 100 µM (inactive) | > 100 µM (inactive) | > 100 µM (inactive) | > 100 µM (inactive) | – | – | > 100 µM (inactive) | > 100 µM (inactive) | > 100 µM (inactive) | > 100 µM (inactive) | > 100 µM (inactive) | > 100 µM (inactive) | > 100 µM (inactive)
10 | CN(c1ccccc1)c1c(-c2ccccc2)c(=O)oc2c1ccc1occc12 | > 100 µM (inactive) | > 100 µM (inactive) | > 100 µM (inactive) | 22.2 µM (inactive) | > 100 µM (inactive) | > 100 µM (inactive) | > 76.7 µM (inactive) | > 100 µM (inactive) | – | > 100 µM (inactive) | > 81.8 µM (inactive) | > 100 µM (inactive) | > 100 µM (inactive) | > 100 µM (inactive) | > 100 µM (inactive) | > 100 µM (inactive) | > 100 µM (inactive) | > 100 µM (inactive)
11 | Cn1c(=O)nc2n(-c3ccc(Cl)cc3Cl)c3ccccc3nc-2c1=O | – | – | 2.04 µM (inactive) | 10.7 µM (inactive) | 2.18 µM (inactive) | 3.96 µM (inactive) | – | 2.87 µM (inactive) | 7.21 µM (inactive) | – | 3.51 µM (inactive) | 2.74 µM (inactive) | – | 12.8 µM (inactive) | 13.7 µM (inactive) | 30.8 µM (inactive) | 1.62 µM (inactive) | 1.7 µM (inactive)
12 | COc1ccccc1N1C(Cl)C(=O)C1c1c[nH]c2ccccc12 (stereo not drawn) | – | > 100 µM (inactive) | > 100 µM (inactive) | > 100 µM (inactive) | > 100 µM (inactive) | > 100 µM (inactive) | > 100 µM (inactive) | > 100 µM (inactive) | > 100 µM (inactive) | – | > 100 µM (inactive) | > 100 µM (inactive) | > 100 µM (inactive) | > 100 µM (inactive) | 26.7 µM (inactive) | > 100 µM (inactive) | > 100 µM (inactive) | > 100 µM (inactive)
